From patent US11155586B2, “Cystine knot scaffold platform” (Genentech, Inc., priority 2015, dated 2021) come the findings set out here.

Positions of bridges follow the written chain, without caps; N, C: chain ends. Residues, ends and D or L forms follow the SMILES beside them.

Experiment [1] concerns the target T1, hVEGF-A (8-109) (Homo sapiens, UniProt P15692).
T1 sequence (P15692 34-135 isoform P15692-4): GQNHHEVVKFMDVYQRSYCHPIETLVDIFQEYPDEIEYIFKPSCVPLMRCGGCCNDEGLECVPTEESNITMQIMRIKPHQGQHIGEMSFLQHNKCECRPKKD
Nature of the experiment: SPR binding assay (BIACORE 3000, 37° C.). The conditions noted are these: for effect of F8Y mutation on affinity/potency: SPR affinity (Table 37) and cellular IC50 (Table 38), vs variant without F8Y; for kd: Table 37, surface plasmon resonance, VEGF-A. On the procedure: Depending on the format of the assay either a streptavidin sensor (SA) or a dextran-coated (CM5) sensor was utilized as described below.
For use with the SA sensor, VEGF-A was first biotinylated (no more than 2 biotin/VEGF-A) by incubating the protein with EZ-link NHS-PEG4-Biotin (Pierce) in a 1:1.5 molar ratio respectively, in PBS for 2 hours on ice. Reaction was then quenched by addition of 10 molar excess of Glycine pH 8.0 and the sample was buffer exchanged into PBS using an Amicon 0.5 mL 3000 MWCO ultra-centrifugal filters (EMD Millipore). The biotinylation state of the protein was verified by LC-MS analysis. Biotinylated VEGF-A was then captured on the surface until a resonance unit (RU) signal of about ˜400. For immobilization of VEGF-A on CM5 sensor, the surface was first activated with a mixture of N-ethyl-N′-(3-dimethylaminopropyl)carbodiimide hydrochloride and N-hydroxysuccinimide (EDC/NHS) according to the supplier instructions. VEGF-A was then diluted into coupling buffer (0.1 M Acetate Buffer, pH 5.0) and injected until the signal reached about ˜400 RU followed by a wash with 1 M ethanolamine pH 8.0 to quench remaining activated sites.
Following the capture step, a series of the peptide concentrations were prepared in HBS-EP buffer with matching DMSO concentrations to 0.1% and injected at a flow rate of […]. The resulting sensorgrams were then analyzed using a 1:1 binding model to obtain kinetic data and affinities using Scrubber 2.0 (BioLogic Software).
In general terms: In SPR one partner is held on a chip, and binding of the other changes the refractive index at the surface.

Experiment [2] addresses T2, hVEGF(8-109) (Homo sapiens, UniProt P15692).
T2 construct: hVEGF(8-109) or BSA were coated on 384-well MAXISORP™ immunoplates
T2 sequence (P15692 214-315): T1 sequence (P15692 34-135 isoform P15692-4)
Nature of the experiment: Spot phage ELISA. It counts as binding. On the procedure: After four rounds of binding selection, individual phage clones were picked and inoculated into 450 μl 2YT media containing 50 µg/ml Carbenecillin and M13-KO7 helper phage in 96-well blocks, which were grown at 37° C. overnight. The supernatant was analyzed with spot phage ELISA as follows: hVEGF(8-109) or BSA were coated on 384-well MAXISORP™ immunoplates and phage supernatant diluted (1:3) with PBT buffer was added to the wells. The plates were washed and bound phage was detected with anti-M13-HRP followed by TMB substrate. In these assays, phage binding to BSA alone was tested in parallel to assess background binding. Clones whose binding signals for hVEGF-A (8-109) were more than 3 times higher than to BSA (background) were considered positive. Positive clones were subjected to DNA sequence analysis.
A general note: ELISA stands for enzyme-linked immunosorbent assay.

[3] abbreviates: loop 2 variants based on VEGF_CKP9.63 framework, Table 27.
Setting [4] is: spot phage ELISA signal, EETI-II-based binders against hVEGF-A, Table 19.

For `CC[C@H](C)[C@@H]1NC(=O)[C@H](CC(N)=O)NC(=O)[C@@H](NC(=O)CN)CSSC[C@@H](C(=O)N[C@H](C(=O)N[C@H]2CSSC[C@@H](C(=O)NCC(=O)O)NC(=O)[C@H](CO)NC(=O)[C@H](CCC(N)=O)NC(=O)[C@H](Cc3ccc(O)cc3)NC(=O)[C@H](Cc3ccc(O)cc3)NC(=O)[C@H](CCC(N)=O)NC2=O)C(C)C)NC(=O)CNC(=O)[C@H](C)NC(=O)[C@H](CC(C)C)NC(=O)[C@@H]2CSSC[C@H](NC(=O)CNC(=O)[C@H](Cc3c[nH]c4ccccc34)NC(=O)[C@H](Cc3ccc(O)cc3)NC(=O)[C@@H]3CCCN3C(=O)[C@H](CC(C)C)NC(=O)[C@H](CCSC)NC1=O)C(=O)NCC(=O)N[C@@H](CCCNC(=N)N)C(=O)N[C@@H](CC(=O)O)C(=O)N[C@@H](Cc1ccccc1)C(=O)N[C@@H](CCC(=O)O)C(=O)N2` [VEGF_CKP9.54.90.F8Y] (H-GCNIMLPYWGCGRDFECLAGCVCQYYQSCG-OH; disulfide 2-21, 11-17, 23-29 (inferred); N-terminus and C-terminus assumed), in experiment [1], the “effect of F8Y mutation on affinity/potency” value was “modest improvement” and the kd came to 0.27.
Taken in the same sequence, the figures for `CC[C@H](C)[C@@H]1NC(=O)[C@H](CC(N)=O)NC(=O)[C@@H](NC(=O)CN)CSSC[C@@H](C(=O)N[C@H](C(=O)N[C@H]2CSSC[C@@H](C(=O)NCC(=O)O)NC(=O)[C@H](CO)NC(=O)[C@H](CCC(N)=O)NC(=O)[C@H](Cc3ccc(O)cc3)NC(=O)[C@H](Cc3ccc(O)cc3)NC(=O)[C@H](CCC(N)=O)NC2=O)C(C)C)NC(=O)CNC(=O)[C@H](C)NC(=O)[C@H](CC(C)C)NC(=O)[C@@H]2CSSC[C@H](NC(=O)CNC(=O)[C@H](Cc3c[nH]c4ccccc34)NC(=O)[C@H](Cc3ccc(O)cc3)NC(=O)[C@@H]3CCCN3C(=O)[C@H](CC(C)C)NC(=O)[C@H](CCSC)NC1=O)C(=O)NCC(=O)N[C@@H](CCC(N)=O)C(=O)N[C@@H](CO)C(=O)N[C@@H](Cc1ccccc1)C(=O)N[C@@H](CCC(=O)O)C(=O)N2` [VEGF_CKP9.54.1.F8Y] (H-GCNIMLPYWGCGQSFECLAGCVCQYYQSCG-OH; disulfide 2-21, 11-17, 23-29 (inferred); N-terminus and C-terminus assumed) were “modest improvement” and 0.38.
Consider “GCDVMQPYWGCGMDIECLAGCVCHWYNSCG [VEGF_CKP9.63.16]”, for which the “S/N (signal to noise ratio as compared to BSA control)” value in experiment [2] (Table 27) stood at 10.3. For the same compound, the ELISA in experiment [2] (setting [3]) is listed as 2.2.
On to “GCDVMQPYWGCGQDLTCLAGCVCHWYNSCG [VEGF_CKP9.63.50]”, for which the “S/N (signal to noise ratio as compared to BSA control)” value in experiment [2] (Table 27) stood at 12.7. The compound further gave an ELISA in experiment [2] (setting [3]) of 0.9.
Regarding `CC[C@H](C)[C@@H]1NC(=O)[C@H](Cc2c[nH]c3ccccc23)NC(=O)[C@H](Cc2c[nH]cn2)NC(=O)[C@@H]2CCCN2C(=O)[C@H](CCCCN)NC(=O)[C@H](Cc2c[nH]c3ccccc23)NC(=O)[C@@H]2CCCN2C(=O)[C@H]([C@@H](C)O)NC(=O)[C@H](C(C)C)NC(=O)[C@@H](NC(=O)CN)CSSC[C@@H]2NC(=O)CNC(=O)[C@H](C)NC(=O)[C@H](CC(C)C)NC(=O)[C@@H]3CSSC[C@@H](C(=O)NCC(=O)O)NC(=O)[C@H](Cc4ccccc4)NC(=O)CNC(=O)[C@H](CC(N)=O)NC(=O)[C@@H]4CCCN4C(=O)CNC(=O)[C@H](CSSC[C@H](NC(=O)[C@H](CC(N)=O)NC1=O)C(=O)N[C@@H](CCCCN)C(=O)N[C@@H](CCC(N)=O)C(=O)N[C@@H](CC(=O)O)C(=O)N[C@@H](CO)C(=O)N[C@@H](CC(=O)O)C(=O)N3)NC(=O)[C@H](C(C)C)NC2=O` [VEGF_CKP13] (H-GCVTPWKPHWINCKQDSDCLAGCVCGPNGFCG-OH; disulfide 2-23, 13-25, 19-31; N-terminus and C-terminus assumed), the “S/N (signal to noise ratio as compared to BSA control)” value in experiment [2] (Table 19) is 56.3. Also, the ELISA in experiment [2] (setting [4]) stood at 3.5.
As for “GCDVMQPYWGCGFDMDCLAGCVCHWYNSCG [VEGF_CKP9.63.65]”, in experiment [2] (Table 27), the “S/N (signal to noise ratio as compared to BSA control)” value was 27.1. This compound gave an ELISA in experiment [2] (setting [3]) of 2.0.
Take `CC(C)C[C@@H]1NC(=O)[C@@H]2CSSC[C@H](NC(=O)CNC(=O)[C@H](Cc3c[nH]c4ccccc34)NC(=O)[C@H](CC(C)C)NC(=O)[C@@H]3CCCN3C(=O)[C@H](CCC(=O)O)NC(=O)[C@H](Cc3ccccc3)NC(=O)[C@H](CC(C)C)NC(=O)[C@H](CCCCN)NC(=O)[C@@H](NC(=O)CN)CSSC[C@@H](C(=O)N[C@H](C(=O)N[C@H]3CSSC[C@@H](C(=O)NCC(=O)O)NC(=O)[C@H](CO)NC(=O)[C@H](CCC(=O)O)NC(=O)[C@H](Cc4ccc(O)cc4)NC(=O)[C@H](Cc4c[nH]c5ccccc45)NC(=O)[C@H](CCCNC(=N)N)NC3=O)C(C)C)NC(=O)CNC(=O)[C@H](C)NC1=O)C(=O)N[C@@H](CCCCN)C(=O)N[C@@H](CCC(N)=O)C(=O)N[C@@H](CC(=O)O)C(=O)N[C@@H](CO)C(=O)N[C@@H](CC(=O)O)C(=O)N2` [VEGF_CKP9.96] (H-GCKLFEPLWGCKQDSDCLAGCVCRWYESCG-OH; disulfide 2-21, 11-17, 23-29; N-terminus and C-terminus assumed): in experiment [2] (Table 24), the “S/N (signal to noise ratio as compared to BSA control)” value came to 18.4. Further, the ELISA in experiment [2] (VEGF_CKP9 Loop1/Loop5 affinity-matured variants, Table 24) came out at 1.2.
For the compound `CC[C@H](C)[C@@H]1NC(=O)[C@H](CCC(=O)O)NC(=O)[C@H](Cc2c[nH]cn2)NC(=O)[C@@H]2CCCN2C(=O)[C@@H]2CCCN2C(=O)[C@H](Cc2c[nH]c3ccccc23)NC(=O)[C@@H]2CCCN2C(=O)[C@H]([C@@H](C)O)NC(=O)[C@H]([C@@H](C)O)NC(=O)[C@@H](NC(=O)CN)CSSC[C@@H]2NC(=O)CNC(=O)[C@H](C)NC(=O)[C@H](CC(C)C)NC(=O)[C@@H]3CSSC[C@@H](C(=O)NCC(=O)O)NC(=O)[C@H](Cc4ccccc4)NC(=O)CNC(=O)[C@H](CC(N)=O)NC(=O)[C@@H]4CCCN4C(=O)CNC(=O)[C@H](CSSC[C@H](NC(=O)[C@H](CCSC)NC1=O)C(=O)N[C@@H](CCCCN)C(=O)N[C@@H](CCC(N)=O)C(=O)N[C@@H](CC(=O)O)C(=O)N[C@@H](CO)C(=O)N[C@@H](CC(=O)O)C(=O)N3)NC(=O)[C@H](C(C)C)NC2=O` [VEGF_CKP12] (H-GCTTPWPPHEIMCKQDSDCLAGCVCGPNGFCG-OH; disulfide 2-23, 13-25, 19-31; N-terminus and C-terminus assumed), the “S/N (signal to noise ratio as compared to BSA control)” value in experiment [2] (Table 19) is given as 55.2. The ELISA in experiment [2] (setting [4]) was 3.5.
With `CC(C)C[C@@H]1NC(=O)[C@@H]2CSSC[C@@H](C(=O)NCC(=O)O)NC(=O)[C@H](Cc3ccccc3)NC(=O)CNC(=O)[C@H](CC(N)=O)NC(=O)[C@@H]3CCCN3C(=O)CNC(=O)[C@@H]3CSSC[C@H](NC(=O)[C@H](Cc4ccc(O)cc4)NC(=O)[C@H](CCC(N)=O)NC(=O)[C@H](CCCCN)NC(=O)[C@H](Cc4ccccc4)NC(=O)[C@H](CCCNC(=N)N)NC(=O)[C@H]([C@@H](C)O)NC(=O)[C@H]([C@@H](C)O)NC(=O)[C@@H]4CCCN4C(=O)[C@@H](NC(=O)CN)CSSC[C@H](NC(=O)CNC(=O)[C@H](C)NC1=O)C(=O)N[C@@H](C(C)C)C(=O)N3)C(=O)N[C@@H](CCCCN)C(=O)N[C@@H](CCC(N)=O)C(=O)N[C@@H](CC(=O)O)C(=O)N[C@@H](CO)C(=O)N[C@@H](CC(=O)O)C(=O)N2` [VEGF_CKP6] (H-GCPTTRFKQYCKQDSDCLAGCVCGPNGFCG-OH; disulfide 2-21, 11-23, 17-29; N-terminus and C-terminus assumed), the “S/N (signal to noise ratio as compared to BSA control)” value in experiment [2] (Table 19) was 51.9. In experiment [2] (setting [4]), this compound showed an ELISA of 3.5.
Take “GCDVMQPYWGCDLNYECLAGCVCHWYNSCG [VEGF_CKP9.63.87]”: in experiment [2] (Table 27), the “S/N (signal to noise ratio as compared to BSA control)” value is 8.6. Further, the ELISA in experiment [2] (setting [3]) is 0.9.
